For one assay, the target named is T1, rM4 receptors (Rattus norvegicus, UniProt P08485).
T1 construct: expressed in transfected cells; host or cells: CHO cells
T1 sequence (P08485 1-478): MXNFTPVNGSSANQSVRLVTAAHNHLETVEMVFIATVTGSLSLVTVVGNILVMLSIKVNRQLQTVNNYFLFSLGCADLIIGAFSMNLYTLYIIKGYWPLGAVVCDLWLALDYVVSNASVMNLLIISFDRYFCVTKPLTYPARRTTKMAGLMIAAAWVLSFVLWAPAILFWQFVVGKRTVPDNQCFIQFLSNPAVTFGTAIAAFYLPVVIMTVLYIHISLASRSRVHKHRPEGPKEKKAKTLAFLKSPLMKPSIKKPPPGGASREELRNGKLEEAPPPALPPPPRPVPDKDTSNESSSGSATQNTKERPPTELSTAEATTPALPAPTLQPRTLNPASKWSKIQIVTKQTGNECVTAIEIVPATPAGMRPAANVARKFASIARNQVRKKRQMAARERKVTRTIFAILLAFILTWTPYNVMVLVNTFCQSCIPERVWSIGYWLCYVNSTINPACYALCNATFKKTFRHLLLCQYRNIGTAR
Nature of the assay: Rat M4 PAM pERK assay. The conditions noted are these: CHO cells expressing rM4; with EC20 of acetylcholine (10 nM final). The format is cell-based. On the procedure: Chinese hamster ovary (CHO) cells expressing either hM4 or rM4 receptors were frozen in assay ready vials (5×10^6 cells/vial) after bulking-up in culture. The day before an assay, vial(s) were thawed and cells seeded in 384 well white proxiplates at 1000/well for hM4 cells and at 2000/well for rM4 cells, in 10 μL of growth media (Hams/F12 with glutamax and 10% FCS) and incubated overnight at 37° C./5% CO2.
On the following morning, the growth media was removed by ‘flicking out’ over a bin, patting the inverted plate onto tissue, and then replacing with 10 μL of wash media (Hams/F12 with glutamax and 8 mM HEPES, NB: serum free). Then, the wash media was removed in the same way and replaced with 8 μL/well of the serum free media. Plates were then re-incubated for a further 4 hours at 37° C./5% CO2.
Compounds for testing were solubilized to 10 mM in DMSO and compound addition plates, consisting of ten-point concentration response curves (CRC) in duplicate points (10 μM top concentration, ½ log dilution series), were prepared by acoustic dispensing and the compound management group.
After the 4-hour incubation in serum free media, a 4 μL aliquot of the 3× compound solution containing an EC20 of acetylcholine (10 nM final concentration) was added to the cell plate using a 384 well plate to plate transfer. Then, the plate lid was replaced, and the cells incubated for 5 mins at 37° C./5% CO2. Following this final incubation, all cellular processes were stopped by the addition of 4 μL/well of lysis and blocking buffer and plates were incubated for 30 minutes at RT on an orbital shaker (gentle setting). Then, a final addition of 4 μL/well of antibody detection mix, containing both the Europium-Cryptate (donor) and d2 (acceptor) tagged detection components, was added followed by a further 2-hour incubation at RT, and then the plate was read using a TR-FRET (time resolved fluorescence resonance energy transfer) based protocol.

The test system of the next assay is Sprague Dawley rats. In words: Amphetamine-evoked hyperlocomotion in rats (open field). Type of assay: in vivo, rat. The conditions noted are these: adult male Sprague Dawley rats, 0.5 mg/kg amphetamine s.c., distance traveled over 60 min after AMP. Here is the method: Animals: Adult male, Sprague Dawley rats (Envigo, Indianapolis, IN, USA) were housed in a colony maintained at 23° C. with 12 hour light/dark cycles (lights on at 0600 hour). All animals weighed 290-330 g at the beginning of the study and were equally divided into 5 groups (n=8 per group) and received one of the treatment conditions listed below. Animal protocols were approved by an Animal Care and Use Committee.
Behavioral Procedures: Studies were conducted in MedAssociates open field chambers (27.3 cm×27.3 cm×20.3 cm, MedAssociates, St. Albans, VT) in which movement was automatically tracked and recorded by 16 beam arrays. Administration pretreatment of the test article was determined to coincide with Tmax at the time of the amphetamine-evoked session with optimal route of administration. All groups were subcutaneously treated with 0.5 mg/kg amphetamine (AMP). […] Locomotor data (distance traveled) was recorded as 5-minute bins throughout the 90-minute session. […]
Statistical Analysis: Spontaneous locomotion (prior to AMP administration) was calculated as the total distance traveled during the first 30 minutes of the experimental session. AMP-evoked responses were calculated as the total distance traveled during the last 60 minutes of the experimental session which commenced immediately after AMP administration. Locomotor data were analyzed by a one-way ANOVA. […]

`Cc1cc(=O)n(C)c2c1CN(C(=O)CC1CC1c1ccc(C(F)(F)F)cc1)C2` (single isomer, unassigned) [Compound I-7]: at rM4 receptors, the EC50 (commonly the concentration that produces a half-maximal response) is 0.1 to 0.5 µM. Further, the “Dose Amount of Compound at which rats displayed a reduction in amphetamine-evoked hyperlocomotion activity” value in the assay with Sprague Dawley rats came to 32 mg/kg.
Take `Cc1c2c(n(C)c(=O)c1F)CN(C(=O)CC1CC1c1ccc(C(F)(F)F)cc1)C2` (stereo not shown) [Compound I-26]: the EC50 on rM4 receptors was below 0.1 µM. Moreover, the “Dose Amount of Compound at which rats displayed a reduction in amphetamine-evoked hyperlocomotion activity” value in the assay on Sprague Dawley rats turned out to be 10 mg/kg.

Values taken from patent US20260209219A1, “SUBSTITUTED TETRAHYDROPYRROLO-PYRIDINONE COMPOUNDS AND THEIR USE IN TREATING MEDICAL CONDITIONS” (Karuna Therapeutics, Inc., priority 2022, published 2026).
